Patent US11807644B2 (PMV Pharmaceuticals, Inc., priority 2020, dated 2023)

Target: T1, recombinant His-tag Y220C p53 DBD protein (Homo sapiens, UniProt P04637, Y220C)
T1 construct: recombinant His-tag Y220C p53 DBD protein (amino acids #˜94-312)
Assay: In vitro DNA binding activity assay (TR-FRET): binding of His-tag Y220C p53 DBD to biotin-labeled consensus DNA
Assay type: biochemical
Conditions: SC150 = concentration to increase DNA binding by […], His-tag Y220C p53 DBD, biotin-labeled consensus DNA

Y220C SC150 (μM)	SMILES
* (* = 0 μM ≤ SC150 < 0.1 μM)	CN1CC[C@@H](Nc2cccc3c2cc(-c2noc(CNC(=O)c4cnn(CCF)c4)n2)n3CC(F)(F)F)[C@@H](F)C1 [Compound 301B]
* (* = 0 μM ≤ SC150 < 0.1 μM)	COCC(C)n1cc(C(=O)NCc2nc(-c3cc4c(N[C@@H]5CCN(C)C[C@@H]5F)cccc4n3CC(F)(F)F)no2)cn1 (stereo partly drawn) [Compound 302B, N-{[3-(4-{[(3S,4R)-3-fluoro-1-methylpiperidin-4-yl]amino}-1-(2,2,2-trifluoroethyl)-1H-indol-2-yl)-1,2,4-oxadiazol-5-yl]methyl}-1-(1-methoxypropan-2-yl)-1H-pyrazole-4-carboxamide]
* (* = 0 μM ≤ SC150 < 0.1 μM)	CC(CF)n1cc(C(=O)NCc2nc(-c3cc4c(N[C@@H]5CCN(C)C[C@@H]5F)cccc4n3CC(F)(F)F)no2)cn1 (stereo partly drawn) [Compound 303B, N-{[3-(4-{[(3S,4R)-3-fluoro-1-methylpiperidin-4-yl]amino}-1-(2,2,2-trifluoroethyl)-1H-indol-2-yl)-1,2,4-oxadiazol-5-yl]methyl}-1-(1-fluoropropan-2-yl)-1H-pyrazole-4-carboxamide]
* (* = 0 μM ≤ SC150 < 0.1 μM)	CCN1CC[C@@H](Nc2cccc3c2cc(-c2noc(CNC(=O)c4cn(C(C)(C)C)cn4)n2)n3CC(F)(F)F)[C@@H](F)C1 [Compound 305B, 1-tert-butyl-N-{[3-(4-{[(3S,4R)-1-ethyl-3-fluoropiperidin-4-yl]amino}-1-(2,2,2-trifluoroethyl)-1H-indol-2-yl)-1,2,4-oxadiazol-5-yl]methyl}-1H-imidazole-4-carboxamide]
* (* = 0 μM ≤ SC150 < 0.1 μM)	CN1CC[C@@H](Nc2cccc3c2cc(-c2noc(CNC(=O)c4cn(CCF)cn4)n2)n3CC(F)(F)F)[C@@H](F)C1 [Compound 306B, N-{[3-(4-{[(3S,4R)-3-fluoro-1-methylpiperidin-4-yl]amino}-1-(2,2,2-trifluoroethyl)-1H-indol-2-yl)-1,2,4-oxadiazol-5-yl]methyl}-1-(2-fluoroethyl)-1H-imidazole-4-carboxamide]
* (* = 0 μM ≤ SC150 < 0.1 μM)	CN1CC[C@@H](Nc2cccc3c2cc(-c2noc(CNC(=O)c4cncn4-c4ccccc4)n2)n3CC(F)(F)F)[C@@H](F)C1 [Compound 309B, N-{[3-(4-{[(3S,4R)-3-fluoro-1-methylpiperidin-4-yl]amino)-1-(2,2,2-trifluoroethyl)-1H-indol-2-yl)-1,2,4-oxadiazol-5-yl]methyl}-1-phenyl-1H-imidazole-5-carboxamide]
* (* = 0 μM ≤ SC150 < 0.1 μM)	CN1CC[C@@H](Nc2cccc3c2cc(-c2noc(CNC(=O)c4cn(CC(F)F)cn4)n2)n3CC(F)(F)F)[C@@H](F)C1 [Compound 310B, 1-(2,2-difluoroethyl)-N-{[3-(4-{[(3S,4R)-3-fluoro-1-methylpiperidin-4-yl]amino}-1-(2,2,2-trifluoroethyl)-1H-indol-2-yl)-1,2,4-oxadiazol-5-yl]methyl}-1H-imidazole-4-carboxamide]
* (* = 0 μM ≤ SC150 < 0.1 μM)	Cc1nn(C(C)C)cc1C(=O)NCc1nc(-c2cc3c(N[C@@H]4CCN(C)C[C@@H]4F)cccc3n2CC(F)(F)F)no1 [Compound 311B, N-{[3-(4-{[(3S,4R)-3-fluoro-1-methylpiperidin-4-yl]amino}-1-(2,2,2-trifluoroethyl)-1H-indol-2-yl)-1,2,4-oxadiazol-5-yl]methyl}-3-methyl-1-(propan-2-yl)-1H-pyrazole-4-carboxamide]
* (* = 0 μM ≤ SC150 < 0.1 μM)	CN1CC[C@@H](Nc2cccc3c2cc(-c2noc(CNC(=O)c4cnn(C5CCCC5)c4)n2)n3CC(F)(F)F)[C@@H](F)C1 [Compound 312B, 1-cyclopentyl-N-{[3-(4-{[(3S,4R)-3-fluoro-1-methylpiperidin-4-yl]amino}-1-(2,2,2-trifluoroethyl)-1H-indol-2-yl)-1,2,4-oxadiazol-5-yl]methyl}-1H-pyrazole-4-carboxamide]
* (* = 0 μM ≤ SC150 < 0.1 μM)	CC(C)N1CC[C@@H](Nc2cccc3c2cc(-c2noc(CNC(=O)c4cn(C(C)(C)C)cn4)n2)n3CC(F)(F)F)[C@@H](F)C1 [Compound 318B, 1-tert-butyl-N-{[3-(4-{[(3S,4R)-3-fluoro-1-(propan-2-yl)piperidin-4-yl]amino}-1-(2,2,2-trifluoroethyl)-1H-indol-2-yl)-1,2,4-oxadiazol-5-yl]methyl}-1H-imidazole-4-carboxamide]
* (* = 0 μM ≤ SC150 < 0.1 μM)	CN1CC[C@@H](Nc2cccc3c2cc(-c2noc(CNC(=O)c4ccn(C5CCCC5)c4)n2)n3CC(F)(F)F)[C@@H](F)C1 [Compound 319B, 1-cyclopentyl-N-{[3-(4-{[(3S,4R)-3-fluoro-1-methylpiperidin-4-yl]amino}-1-(2,2,2-trifluoroethyl)-1H-indol-2-yl)-1,2,4-oxadiazol-5-yl]methyl}-1H-pyrrole-3-carboxamide]
* (* = 0 μM ≤ SC150 < 0.1 μM)	CN1CC[C@@H](Nc2cccc3c2cc(-c2noc(CNC(=O)c4cnn(C5CCOC5)c4)n2)n3CC(F)(F)F)[C@@H](F)C1 (stereo partly drawn) [Compound 321B, N-{[3-(4-{[(3S,4R)-3-fluoro-1-methylpiperidin-4-yl]amino}-1-(2,2,2-trifluoroethyl)-1H-indol-2-yl)-1,2,4-oxadiazol-5-yl]methyl}-1-(oxolan-3-yl)-1H-pyrazole-4-carboxamide]
* (* = 0 μM ≤ SC150 < 0.1 μM)	Cc1c(C(=O)NCc2nc(-c3cc4c(N[C@@H]5CCN(C)C[C@@H]5F)cccc4n3CC(F)(F)F)no2)cnn1C(C)(C)C [Compound 322B, 1-tert-butyl-N-{[3-(4-{[(3S,4R)-3-fluoro-1-methylpiperidin-4-yl]amino}-1-(2,2,2-trifluoroethyl)-1H-indol-2-yl)-1,2,4-oxadiazol-5-yl]methyl}-5-methyl-1H-pyrazole-4-carboxamide]

The remaining lines, values behind:

SMILES	Y220C SC150 (μM)
CCN1CC[C@@H](Nc2cccc3c2cc(-c2noc(CNC(=O)c4ccn(C(C)(C)C)c4)n2)n3CC(F)(F)F)[C@@H](F)C1 [Compound 298B, 1-tert-butyl-N-{[3-(4-{[(3S,4R)-1-ethyl-3-fluoropiperidin-4-yl]amino}-1-(2,2,2-trifluoroethyl)-1H-indol-2-yl)-1,2,4-oxadiazol-5-yl]methyl}-1H-pyrrole-3-carboxamide]	* (* = 0 μM ≤ SC150 < 0.1 μM)
CCN1CC[C@H](Nc2cccc3c2cc(-c2noc(CNC(=O)c4ccn(C(C)(C)C)c4)n2)n3CC(F)(F)F)[C@H](F)C1 [Compound 299B, 1-tert-butyl-N-{[3-(4-{[(3R,4S)-1-ethyl-3-fluoropiperidin-4-yl]amino}-1-(2,2,2-trifluoroethyl)-1H-indol-2-yl)-1,2,4-oxadiazol-5-yl]methyl}-1H-pyrrole-3-carboxamide]	* (* = 0 μM ≤ SC150 < 0.1 μM)
CN1CC[C@@H](Nc2cccc3c2cc(-c2noc(CNC(=O)c4cnn(Cc5ccccc5)c4)n2)n3CC(F)(F)F)[C@@H](F)C1 [Compound 300B, 1-benzyl-N-{[3-(4-{[(3S,4R)-3-fluoro-1-methylpiperidin-4-yl]amino}-1-(2,2,2-trifluoroethyl)-1H-indol-2-yl)-1,2,4-oxadiazol-5-yl]methyl}-1H-pyrazole-4-carboxamide]	* (* = 0 μM ≤ SC150 < 0.1 μM)
CCN1CC[C@@H](Nc2cccc3c2cc(-c2noc(CNC(=O)c4cnn(C(C)(C)C)c4)n2)n3CC(F)(F)F)[C@@H](F)C1 [Compound 304B, 1-tert-butyl-N-{[3-(4-{[(3S,4R)-1-ethyl-3-fluoropiperidin-4-yl]amino}-1-(2,2,2-trifluoroethyl)-1H-indol-2-yl)-1,2,4-oxadiazol-5-yl]methyl}-1H-pyrazole-4-carboxamide]	* (* = 0 μM ≤ SC150 < 0.1 μM)
CN1CC[C@@H](Nc2cccc3c2cc(-c2noc(CNC(=O)c4cnn(-c5ccccc5)c4)n2)n3CC(F)(F)F)[C@@H](F)C1 [Compound 308B, N-{[3-(4-{1[(3S,4R)-3-fluoro-1-methylpiperidin-4-yl]amino}-1-(2,2,2-trifluoroethyl)-1H-indol-2-yl)-1,2,4-oxadiazol-5-yl]methyl}-1-phenyl-1H-pyrazole-4-carboxamide]	* (* = 0 μM ≤ SC150 < 0.1 μM)
CCN1CC[C@@H](Nc2cccc3c2cc(-c2noc(CNC(=O)c4cnn(C5CCOC5)c4)n2)n3CC(F)(F)F)[C@@H](F)C1 (stereo partly drawn) [Compound 314B, N-{[3-(4-{[(3S,4R)-1-ethyl-3-fluoropiperidin-4-yl]amino}-1-(2,2,2-trifluoroethyl)-1H-indol-2-yl)-1,2,4-oxadiazol-5-yl]methyl}-1-(oxolan-3-yl)-1H-pyrazole-4-carboxamide]	* (* = 0 μM ≤ SC150 < 0.1 μM)
CC(C)N1CC[C@@H](Nc2cccc3c2cc(-c2noc(CNC(=O)c4cnn(C(C)(C)C)c4)n2)n3CC(F)(F)F)[C@@H](F)C1 [Compound 316B, 1-tert-butyl-N-{[3-(4-{[(3S,4R)-3-fluoro-1-(propan-2-yl)piperidin-4-yl]amino}-1-(2,2,2-trifluoroethyl)-1H-indol-2-yl)-1,2,4-oxadiazol-5-yl]methyl}-1H-pyrazole-4-carboxamide]	* (* = 0 μM ≤ SC150 < 0.1 μM)
CC(C)N1CC[C@@H](Nc2cccc3c2cc(-c2noc(CNC(=O)c4ccn(C(C)(C)C)c4)n2)n3CC(F)(F)F)[C@@H](F)C1 [Compound 317B, 1-tert-butyl-N-{[3-(4-{[(3S,4R)-3-fluoro-1-(propan-2-yl)piperidin-4-yl]amino}-1-(2,2,2-trifluoroethyl)-1H-indol-2-yl)-1,2,4-oxadiazol-5-yl]methyl}-1H-pyrrole-3-carboxamide]	* (* = 0 μM ≤ SC150 < 0.1 μM)
CCN1CC[C@@H](Nc2cccc3c2cc(-c2noc(CNC(=O)c4ccn(C5CCCC5)c4)n2)n3CC(F)(F)F)[C@@H](F)C1 [Compound 320B, 1-cyclopentyl-N-{[3-(4-{[(3S,4R)-1-ethyl-3-fluoropiperidin-4-yl]amino}-1-(2,2,2-trifluoroethyl)-1H-indol-2-yl)-1,2,4-oxadiazol-5-yl]methyl}-1H-pyrrole-3-carboxamide]	* (* = 0 μM ≤ SC150 < 0.1 μM)
